Reference: ChEMBL document CHEMBL1158404, “Antifungal activity of alkyl and heterocyclic aza-derivatives of gossypol as well as their complexes with NaClO4 against Fusarium oxysporum f. sp. lupini” (2009)

Tests used:
Assay type in all cases: functional
Fusarium oxysporum [1] = assay: Antifungal activity against Fusarium oxysporum f. sp. lupini at 1 ug/ml after 96 hrs
Fusarium oxysporum [2] = assay: Antifungal activity against Fusarium oxysporum f. sp. lupini at 0.1 ug/ml after 192 hrs relative to control; details: read-out: GI
Fusarium oxysporum [3] = assay: Antifungal activity against Fusarium oxysporum f. sp. lupini at 0.5 ug/ml after 48 hrs
Fusarium oxysporum [4] = assay: Antifungal activity against Fusarium oxysporum f. sp. lupini at 0.5 ug/ml after 144 hrs
Fusarium oxysporum [5] = assay: Antifungal activity against Fusarium oxysporum f. sp. lupini at 1 ug/ml after 192 hrs
Fusarium oxysporum [6] = assay: Antifungal activity against Fusarium oxysporum f. sp. lupini at 0.5 ug/ml after 192 hrs relative to control; details: read-out: GI
Fusarium oxysporum [7] = assay: Antifungal activity against Fusarium oxysporum f. sp. lupini at 1 ug/ml after 192 hrs relative to control; details: read-out: GI
Fusarium oxysporum [8] = assay: Antifungal activity against Fusarium oxysporum f. sp. lupini at 0.5 ug/ml after 96 hrs
Fusarium oxysporum [9] = assay: Antifungal activity against Fusarium oxysporum f. sp. lupini at 20 ug/ml after 144 hrs
Fusarium oxysporum [10] = assay: Antifungal activity against Fusarium oxysporum f. sp. lupini at 0.1 ug/ml after 192 hrs
Fusarium oxysporum [11] = assay: Antifungal activity against Fusarium oxysporum f. sp. lupini at 0.1 ug/ml after 144 hrs
Fusarium oxysporum [12] = assay: Antifungal activity against Fusarium oxysporum f. sp. lupini at 0.1 ug/ml after 48 hrs
Fusarium oxysporum [13] = assay: Antifungal activity against Fusarium oxysporum f. sp. lupini at 20 ug/ml after 96 hrs
Fusarium oxysporum [14] = assay: Antifungal activity against Fusarium oxysporum f. sp. lupini at 0.5 ug/ml after 192 hrs
Fusarium oxysporum [15] = assay: Antifungal activity against Fusarium oxysporum f. sp. lupini at 0.1 ug/ml after 96 hrs
Fusarium oxysporum [16] = assay: Antifungal activity against Fusarium oxysporum f. sp. lupini at 20 ug/ml after 192 hrs
Fusarium oxysporum [17] = assay: Antifungal activity against Fusarium oxysporum f. sp. lupini at 20 ug/ml after 48 hrs
Fusarium oxysporum [18] = assay: Antifungal activity against Fusarium oxysporum f. sp. lupini at 1 ug/ml after 144 hrs
Fusarium oxysporum [19] = assay: Antifungal activity against Fusarium oxysporum f. sp. lupini at 20 ug/ml after 192 hrs relative to control; details: read-out: GI
Fusarium oxysporum [20] = assay: Antifungal activity against Fusarium oxysporum f. sp. lupini at 1 ug/ml after 48 hrs

SMILES | Radial growth inhibition of fungi (Ā) (mm) (Fusarium oxysporum [1]) | inhibition of growth at 0.1 µg/mL (Fusarium oxysporum [2]) [%] | Radial growth inhibition of fungi (Ā) (mm) (Fusarium oxysporum [3]) | Radial growth inhibition of fungi (Ā) (mm) (Fusarium oxysporum [4]) | Radial growth inhibition of fungi (Ā) (mm) (Fusarium oxysporum [5]) | inhibition of growth at 0.5 µg/mL (Fusarium oxysporum [6]) [%] | inhibition of growth at 1 µg/mL (Fusarium oxysporum [7]) [%] | Radial growth inhibition of fungi (Ā) (mm) (Fusarium oxysporum [8]) | Radial growth inhibition of fungi (Ā) (mm) (Fusarium oxysporum [9]) | Radial growth inhibition of fungi (Ā) (mm) (Fusarium oxysporum [10]) | Radial growth inhibition of fungi (Ā) (mm) (Fusarium oxysporum [11]) | Radial growth inhibition of fungi (Ā) (mm) (Fusarium oxysporum [12]) | Radial growth inhibition of fungi (Ā) (mm) (Fusarium oxysporum [13]) | Radial growth inhibition of fungi (Ā) (mm) (Fusarium oxysporum [14]) | Radial growth inhibition of fungi (Ā) (mm) (Fusarium oxysporum [15]) | Radial growth inhibition of fungi (Ā) (mm) (Fusarium oxysporum [16]) | Radial growth inhibition of fungi (Ā) (mm) (Fusarium oxysporum [17]) | Radial growth inhibition of fungi (Ā) (mm) (Fusarium oxysporum [18]) | inhibition of growth at 20 µg/mL (Fusarium oxysporum [19]) [%] | Radial growth inhibition of fungi (Ā) (mm) (Fusarium oxysporum [20])
COCCOCCOCCN/C=C1\C(=O)C(O)=C(C(C)C)c2cc(C)c(-c3c(C)cc4c(c3O)/C(=C/NCCOCCOCCOC)C(=O)C(O)=C4C(C)C)c(O)c21 | 25 | 12.7 | 16.38 | 36.88 | 45.75 | 18.1 | 22.8 | 25.75 | 34.13 | 51.75 | 39.25 | 16.75 | 24.13 | 48.5 | 27 | 44 | 14.13 | 35.25 | 25.7 | 14.88
CCOC(=O)N1CCC(N/C=C2\C(=O)C(O)=C(C(C)C)c3cc(C)c(-c4c(C)cc5c(c4O)/C(=C/NC4CCN(C(=O)OCC)CC4)C(=O)C(O)=C5C(C)C)c(O)c32)CC1 | 32.25 |  |  |  | 59.25 |  | 0 |  | 46 |  |  |  | 32.13 |  |  | 59 | 19.63 | 46.25 | 0.4 | 19.88
Cc1cc2c(c(O)c1-c1c(C)cc3c(C(C)C)c(O)c(O)c(/C=N/N4CCN(CCO)CC4)c3c1O)C(/C=N/N1CCN(CCO)CC1)C(=O)C(O)=C2C(C)C (stereo not given) | 32 |  |  |  | 58.5 |  | 1.3 |  | 45.38 |  |  |  | 31.5 |  |  | 58.25 | 19.5 | 45.5 | 1.7 | 19.63
C=CCN/C=C1\C(=O)C(O)=C(C(C)C)c2cc(C)c(-c3c(C)cc4c(c3O)/C(=C/NCC=C)C(=O)C(O)=C4C(C)C)c(O)c21 | 26 | 9.3 | 18.13 | 38.88 | 47 | 15.6 | 20.7 | 27.25 | 34.63 | 53.75 | 41.63 | 19.25 | 24.75 | 50 | 29.88 | 45.88 | 14.63 | 36.63 | 22.6 | 17.13
Cc1cc2c(c(O)c1-c1c(C)cc3c(c1O)/C(=C/NCCc1cccs1)C(=O)C(O)=C3C(C)C)/C(=C/NCCc1cccs1)C(=O)C(O)=C2C(C)C | 32 |  |  |  | 59.13 |  | 0.2 |  | 45.75 |  |  |  | 31.75 |  |  | 58.75 | 19.38 | 46 | 0.8 | 19.63
COCCOC(C/N=C/c1c(O)c(O)c(C(C)C)c2cc(C)c(-c3c(C)cc4c(c3O)C(/C=N/CC(OCCOC)OCCOC)C(=O)C(O)=C4C(C)C)c(O)c12)OCCOC (stereo not given) | 32.13 |  |  |  | 58.63 |  | 1 |  | 45.5 |  |  |  | 31.63 |  |  | 58.38 | 19.63 | 45.63 | 1.5 | 19.75
Cc1cc2c(c(O)c1-c1c(C)cc3c(C(C)C)c(O)c(O)c(/C=N/N4CCN(C)CC4)c3c1O)C(/C=N/N1CCN(C)CC1)C(=O)C(O)=C2C(C)C (stereo not given) | 31.88 |  |  |  | 58.75 |  | 0.8 |  | 45.75 |  |  |  | 31.63 |  |  | 58.5 | 19.25 | 45.75 | 1.3 | 19.38
Cc1cc2c(c(O)c1-c1c(C)cc3c(c1O)/C(=C/NCCOCCO)C(=O)C(O)=C3C(C)C)/C(=C/NCCOCCO)C(=O)C(O)=C2C(C)C | 25.75 | 11.2 | 17.63 | 38 | 46.25 | 16.5 | 21.9 | 26.5 | 34.5 | 52.63 | 40.38 | 18.13 | 24.5 | 49.5 | 28.5 | 45.25 | 14.38 | 35.88 | 23.6 | 16
Cc1cc2c(C(C)C)c(O)c(O)c(C=O)c2c(O)c1-c1c(C)cc2c(C(C)C)c(O)c(O)c(C=O)c2c1O [GOSSYPOL] | 26.25 | 7.2 | 18.63 | 39.5 | 47.25 | 14.8 | 20.3 | 27.88 | 35 | 55 | 42.75 | 19.63 | 25.25 | 50.5 | 30.63 | 46 | 14.88 | 36.75 | 22.4 | 17.25
Cc1cc2c(c(O)c1-c1c(C)cc3c(c1O)/C(=C/NCCCN1CCCC1=O)C(=O)C(O)=C3C(C)C)/C(=C/NCCCN1CCCC1=O)C(=O)C(O)=C2C(C)C | 32.13 |  |  |  | 59.25 |  | 0 |  | 45.88 |  |  |  | 31.88 |  |  | 58.88 | 19.5 | 46.13 | 0.6 | 19.75
Cc1cc2c(c(O)c1-c1c(C)cc3c(c1O)/C(=C/NCCCN1CCOCC1)C(=O)C(O)=C3C(C)C)/C(=C/NCCCN1CCOCC1)C(=O)C(O)=C2C(C)C | 31.88 |  |  |  | 59 |  | 0.4 |  | 45.63 |  |  |  | 31.63 |  |  | 58.63 | 19.25 | 45.88 | 1 | 19.5
COCC/N=C/c1c(O)c(O)c(C(C)C)c2cc(C)c(-c3c(C)cc4c(c3O)C(/C=N/CCOC)C(=O)C(O)=C4C(C)C)c(O)c12 (stereo not given) | 32.13 |  |  |  | 59 |  | 0.4 |  | 45.88 |  |  |  | 31.88 |  |  | 58.88 | 19.5 | 46.13 | 0.6 | 19.75
